Test results reported in patent US8426447B2, “Spiro-tricyclic ring compounds as beta-secretase modulators and methods of use” (Amgen Inc., priority 2008, dated 2013).
Blank lines part the entries; values can stand above or below the compound they belong to.

Columns and labels:
BACE1 [1] = molecular target: T1, BACE1 (Homo sapiens, UniProt P56817); experiment: In Vitro Enzymatic BACE FRET (Fluorescence Resonance Energy Transfer) Assay; type: biochemical
Method in brief: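 Buffer: 0.05 M acetate, pH 4.2, 10% DMSO final, 100 uM genapol. Start: FRET substrate 50 nM. Incubation 1 h. Stop: Tris to neutral pH. Read: fluorescence.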

BACE1 [2] = molecular target: T1, BACE1; experiment: In Vitro BACE Cell-based Assay (HEK cell assay): Aβ40 in conditioned medium of cells stably expressing Amyloid Precursor Protein, sandwich ELISA
Method in brief: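 First, APP-stable cells grow 24 h at 37° C., 5% CO2. Next, test compounds are added for 24 h (10 doses, 0.1% DMSO). Finally, medium Aβ40 is determined by pAb40/6E10 sandwich ELISA with Europium TRF, and IC50 is calculated.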

[3] = HEK cells, read-out: HEK cell assay
[4] = in vitro BACE FRET enzyme assay, IC50 class symbols, read-out: BACE1 FRET assay
[5] = HEK cell-based assay, Aβ40 in conditioned medium, IC50 class symbols, read-out: HEK cell assay
[6] = Table IV, class symbols, read-out: BACE1 FRET assay
[7] = Table IV, class symbols, read-out: HEK cell assay
[8] = Table III, IC50's in uM ranges, read-out: BACE1 FRET assay
[9] = Table III, IC50's in uM ranges, read-out: HEK cell assay

T1 sequence (P56817 46-501, species assumed): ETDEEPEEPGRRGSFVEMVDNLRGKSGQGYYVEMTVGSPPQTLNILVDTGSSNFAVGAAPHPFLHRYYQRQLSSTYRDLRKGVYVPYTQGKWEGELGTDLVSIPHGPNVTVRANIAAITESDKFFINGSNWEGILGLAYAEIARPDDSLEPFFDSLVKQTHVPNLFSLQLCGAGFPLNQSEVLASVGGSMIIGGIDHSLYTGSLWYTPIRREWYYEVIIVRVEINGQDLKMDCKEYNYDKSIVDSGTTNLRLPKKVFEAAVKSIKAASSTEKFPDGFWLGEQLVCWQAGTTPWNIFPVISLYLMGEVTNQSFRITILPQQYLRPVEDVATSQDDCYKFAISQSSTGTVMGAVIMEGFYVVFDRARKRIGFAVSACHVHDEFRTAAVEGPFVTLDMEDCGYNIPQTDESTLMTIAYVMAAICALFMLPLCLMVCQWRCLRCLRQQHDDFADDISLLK

Compound: CC1(C)CC(c2cc3c(cn2)Oc2ccc(-c4cccnc4F)cc2[C@@]32COC(N)=N2)=CCO1 [compound 434]
IC50 (BACE1 [1]; BACE1 FRET assay (uM)): < 0.1 µM
IC50 (BACE1 [2]; HEK cell assay (uM), HEK cells): < 0.1 µM

Compound: COc1cc(F)c2c(c1)[C@@]1(COC(N)=N1)c1cc(-c3cncnc3)ccc1O2 [compound 582]
IC50 (BACE1 [1]; [6]): 1 to 5 µM
IC50 (BACE1 [2]; [7]): > 5 µM

Compound: NC1=N[C@@]2(CO1)c1cc(-c3cccnc3)ccc1Oc1ccc(-c3cncnc3)cc12 [compound 225]
IC50 (BACE1 [1]; [8]): < 0.1 µM
IC50 (BACE1 [2]; [9]): < 0.1 µM

Compound: NC1=N[C@@]2(CO1)c1cc(-c3cncnc3)ccc1Oc1ccc(-c3cccc(OC(F)(F)F)c3)cc12 [compound 839]
IC50 (BACE1 [1]; [6]): < 0.1 µM
IC50 (BACE1 [2]; [7]): 1 to 5 µM

Compound: CC1(C#Cc2cnc3c(c2)[C@]2(COC(N)=N2)c2cc(-c4ccccc4F)ccc2O3)COC1 [compound 520]
IC50 (BACE1 [1]; read-out: BACE1 FRET assay): < 0.1 µM
IC50 (BACE1 [2]; [3]): < 0.1 µM

Compound: NC1=N[C@]2(CO1)c1ccccc1Oc1ccc(-c3cccc4cccnc34)cc12 [compound 630]
IC50 (BACE1 [1]; [6]): 1 to 5 µM
IC50 (BACE1 [2]; [7]): > 5 µM

Compound: NC1=N[C@@]2(CO1)c1cc(-c3cncnc3)ccc1Oc1c(F)cccc12 [compound 553]
IC50 (BACE1 [1]; [6]): < 0.1 µM
IC50 (BACE1 [2]; [7]): 0.1 to 1 µM

Compound: CC1CCN(c2cc3c(cn2)Oc2ccc(-c4cccnc4)cc2[C@@]32COC(N)=N2)CC1 [compound 441]
IC50 (BACE1 [1]; read-out: BACE1 FRET assay): < 0.1 µM
IC50 (BACE1 [2]; [3]): < 0.1 µM

Compound: NC1=N[C@@]2(CO1)c1cc(-c3cncnc3)ccc1Oc1ccc(N3CCOC4(CCCC4)C3)cc12 [compound 462]
IC50 (BACE1 [1]; read-out: BACE1 FRET assay): < 0.1 µM
IC50 (BACE1 [2]; [3]): 0.1 to 1 µM

Compound: NC1=N[C@@]2(CO1)c1cc(-c3cccnc3F)ccc1Oc1c(F)cc(C3CCOCC3)cc12 [compound 385, (4S)-4′-fluoro-7′-(2-fluoro-3-pyridinyl)-2′-(tetrahydro-2H-pyran-4-yl)spiro[1,3-oxazole-4,9′-xanthen]-2-amine]
IC50 (BACE1 [1]; [4]): < 0.1 µM
IC50 (BACE1 [2]; [5]): < 0.1 µM

The remaining lines, values ahead:

IC50 (BACE1 [1]; read-out: BACE1 FRET assay): 0.1 to 1 µM
IC50 (BACE1 [2]; [3]): 0.1 to 1 µM
Compound: NC1=N[C@@]2(CO1)c1cc(-c3cccnc3)ccc1Oc1cnc(N)cc12 [compound 446]

IC50 (BACE1 [1]; [4]): < 0.1 µM
IC50 (BACE1 [2]; [5]): < 0.1 µM
Compound: CC(C)(F)COc1cc2c(cc1F)Oc1ccc(-c3cccnc3)cc1[C@@]21COC(N)=N1 [compound 353, (4S)-3′-fluoro-2′-(2-fluoro-2-methylpropoxy)-7′-(3-pyridinyl)spiro[1,3-oxazole-4,9′-xanthen]-2-amine]

IC50 (BACE1 [1]; read-out: BACE1 FRET assay): 0.1 to 1 µM
IC50 (BACE1 [2]; read-out: HEK cell assay): 1 to 5 µM
Compound: CC(C)(C)COc1ccc2c(c1)[C@]1(COC(N)=N1)c1cc(C#N)ccc1O2 [compound 959]

IC50 (BACE1 [1]; read-out: BACE1 FRET assay): < 0.1 µM
IC50 (BACE1 [2]; read-out: HEK cell assay): < 0.1 µM
Compound: CC(C)(C)COc1ccc2c(c1)[C@@]1(COC(N)=N1)c1cc(-c3cncc(F)c3)cnc1O2 [compound 753]

IC50 (BACE1 [1]; [6]): 0.1 to 1 µM
IC50 (BACE1 [2]; [7]): 1 to 5 µM
Compound: N#Cc1cccc(-c2ccc3c(c2)[C@]2(COC(N)=N2)c2cccnc2O3)c1 [compound 610]

IC50 (BACE1 [1]; Table II, read-out: BACE1 FRET assay): < 0.1 µM
IC50 (BACE1 [2]; Table II, Aβ40, 24 h incubation, read-out: HEK cell assay): 0.1 to 1 µM
Compound: CC(C)(C)COc1ccc2c(c1)[C@]1(COC(N)=N1)c1cc(-c3cc(Cl)ccc3F)cnc1O2 [Example 91, (5R)-3-(5-chloro-2-fluorophenyl)-7-(2,2-dimethylpropoxy)spiro[chromeno[2,3-b]pyridine-5,4′-[1,3]oxazol]-2′-amine]

IC50 (BACE1 [1]; [8]): < 0.1 µM
IC50 (BACE1 [2]; [9]): 0.1 to 1 µM
Compound: NC1=N[C@]2(CO1)c1cc(OC3CCC3)ccc1Oc1ccc(-c3cccnc3)cc12 [compound 195]

IC50 (BACE1 [1]; [6]): > 5 µM
IC50 (BACE1 [2]; [7]): 0.1 to 1 µM
Compound: COc1ccc2c(c1)[C@]1(COC(N)=N1)c1cc(C#CC(C)(C)C)cnc1O2 [compound 904]

IC50 (BACE1 [1]; Table 1, read-out: BACE1 FRET assay): 1 to 5 µM
IC50 (BACE1 [2]; Table 1, Aβ40, 24 h incubation, read-out: HEK cell assay): > 5 µM
Compound: COc1ccc2c(c1)C1(COC(N)=N1)c1cc(-c3cccc(C)c3)ccc1O2 (centres unmarked) [Example 20, 2′-methoxy-7′-(3-methylphenyl)spiro[1,3-oxazole-4,9′-xanthen]-2-amine]

IC50 (BACE1 [1]; [6]): < 0.1 µM
IC50 (BACE1 [2]; [7]): 1 to 5 µM
Compound: CC(C)(C)COc1ccc2c(c1)[C@]1(COC(N)=N1)c1cc(-c3ccsc3)ccc1O2 [compound 833]

IC50 (BACE1 [1]; [8]): < 0.1 µM
IC50 (BACE1 [2]; [9]): < 0.1 µM
Compound: NC1=N[C@]2(CO1)c1cc(C#CCCO)ccc1Oc1ccc(-c3cccnc3)cc12 [compound 183]

IC50 (BACE1 [1]; read-out: BACE1 FRET assay): < 0.1 µM
IC50 (BACE1 [2]; [3]): < 0.1 µM
Compound: NC1=N[C@@]2(CO1)c1cc(C(=O)NC3CC3)ccc1Oc1ccc(-c3ccccc3)cc12 [compound 518]
